Laboratory results published in patent publication US20260315604A1, “OTUB1 Small-Molecule Binders and OTUB1-recruiting Deubiquitinase-targeting Chimeras (DUBTACs)” (ICAHN SCHOOL OF MEDICINE AT MOUNT SINAI, priority 2023, published 2026).

How the values were obtained:
cGAS and OTUB1 = target: T1, cGAS and OTUB1 (Homo sapiens, UniProt Q8N884+Q96FW1); experiment: cGAS co-elution with OTUB1; assay type: binding; conditions: in the presence of compound; FIG. 6F
T1 construct: other panels use HeLa cells; recombinant His-OTUB1 from E. coli described
T1 sequence (Q8N884 whole entry): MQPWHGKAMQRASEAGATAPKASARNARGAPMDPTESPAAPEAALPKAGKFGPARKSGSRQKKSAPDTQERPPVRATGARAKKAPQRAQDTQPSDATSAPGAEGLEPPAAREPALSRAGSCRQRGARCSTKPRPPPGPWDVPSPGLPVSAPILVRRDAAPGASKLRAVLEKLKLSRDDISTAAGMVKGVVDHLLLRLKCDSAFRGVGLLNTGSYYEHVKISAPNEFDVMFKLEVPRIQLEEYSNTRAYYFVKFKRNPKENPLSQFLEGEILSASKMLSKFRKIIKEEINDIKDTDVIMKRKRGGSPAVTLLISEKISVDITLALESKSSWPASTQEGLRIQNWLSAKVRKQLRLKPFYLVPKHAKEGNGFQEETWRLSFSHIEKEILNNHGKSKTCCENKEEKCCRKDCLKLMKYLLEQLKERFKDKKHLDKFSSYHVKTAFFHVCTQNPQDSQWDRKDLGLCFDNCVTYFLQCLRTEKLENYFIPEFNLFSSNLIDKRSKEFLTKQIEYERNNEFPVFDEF
T1 sequence (Q96FW1 whole entry): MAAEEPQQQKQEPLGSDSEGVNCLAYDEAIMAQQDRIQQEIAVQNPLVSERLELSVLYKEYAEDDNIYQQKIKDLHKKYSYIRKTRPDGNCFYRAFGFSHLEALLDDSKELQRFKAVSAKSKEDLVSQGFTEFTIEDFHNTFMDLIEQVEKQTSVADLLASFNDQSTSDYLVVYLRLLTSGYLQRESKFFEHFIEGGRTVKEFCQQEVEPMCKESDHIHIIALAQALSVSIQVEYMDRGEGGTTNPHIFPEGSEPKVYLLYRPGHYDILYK

OTUB1 [1] = conditions: background statement; cited from earlier work
Human OTUB1 wild-type = target: T2, Human OTUB1 wild-type (Homo sapiens, UniProt Q96FW1); experiment: Covalent modification of OTUB1 (adduct formation), mass spectrometry-based assay (OTUB1 covalent binders; selected CFTR or cGAS based bivalent compounds); assay type: binding; conditions: covalent adduct formation with OTUB1 protein
T2 construct: His tag (N); made in house; host or cells: E. coli BL21-CodonPlus (DE3)-RIPIL
T2 sequence (Q96FW1 whole entry): as above
How it was run: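 His-tagged human OTUB1 (10 μM), E. coli-expressed, incubated with compound (2500 μM) in 50 mM Tris-HCl pH 7.5, 150 mM NaCl, 0.5 mM TCEP for 1 h at room temperature. Adduct detected by intact-protein LC/ESI-TOF mass spectrometry after buffer exchange; duplicates.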

OTUB1 [2] = conditions: background statement; cited from earlier work; remark: listed apart in the source

% of OTUB1 modified (Human OTUB1 wild-type)	Structure (SMILES)	further results
40%	C=CC(=O)N1CCN(c2ccc(C)o2)C(=O)C1 [EN523, reference compound]	binding affinity to OTUB1 (OTUB1 [1]): low binding affinity to OTUB1
60%	Cc1sccc1N1CCN(C(=O)/C=C/CN(C)C)CC1=O [XS175-67, (E)-4-(4-(dimethylamino)but-2-enoyl)-1-(2-methylthiophen-3-yl)piperazin-2-one]	
70%	Cc1ccc(N2CCN(C(=O)/C=C/CN(C)C)CC2=O)s1 [XS165-105, (E)-4-(4-(dimethylamino)but-2-enoyl)-1-(5-methylthiophen-2-yl)piperazin-2-one]	
20%	Cc1ccc(C(=O)N2CCN(C(=O)/C=C/CN(C)C)CC2)s1 [XS185-64, (E)-4-(dimethylamino)-1-(4-(5-methylthiophene-2-carbonyl)piperazin-1-yl)but-2-en-1-one]	
75%	CCc1ccc(N2CCN(C(=O)/C=C/CN(C)C)CC2=O)s1 [XS175-63, (E)-4-(4-(dimethylamino)but-2-enoyl)-1-(5-ethylthiophen-2-yl)piperazin-2-one]	
95%	CC(C)c1ccc(N2CCN(C(=O)/C=C/CN(C)C)CC2=O)s1 [XS175-64, (E)-4-(4-(dimethylamino)but-2-enoyl)-1-(5-isopropylthiophen-2-yl)piperazin-2-one]	
97%	CC(=O)N1CCc2sc(N3CC4CCC(C3=O)N4C(=O)/C=C/CN(C)C)cc2C1 (centres unmarked) [XS190-70, (E)-3-(5-acetyl-4,5,6,7-tetrahydrothieno[3,2-c]pyridin-2-yl)-8-(4-(dimethylamino)but-2-enoyl)-3,8-diazabicyclo[3.2.1]octan-2-one]	
35%	Cc1ccc(N2CC3(CN(C(=O)/C=C/CN(C)C)C3)C2)s1 [XS185-3, (E)-4-(dimethylamino)-1-(6-(5-methylthiophen-2-yl)-2,6-diazaspiro[3.3]heptan-2-yl)but-2-en-1-one]	
98%	Cc1ccc(N2CC3CCC(C2=O)N3C(=O)/C=C/CN(C)C)s1 (centres unmarked) [XS185-75, (E)-8-(4-(dimethylamino)but-2-enoyl)-3-(5-methylthiophen-2-yl)-3,8-diazabicyclo[3.2.1]octan-2-one]	
<1%	Cc1ccc(N2CCN(C(=O)/C=C/CN(C)C)CC2)s1 [XS165-172, (E)-4-(dimethylamino)-1-(4-(5-methylthiophen-2-yl)piperazin-1-yl)but-2-en-1-one]	
90%	Cc1csc(N2CCN(C(=O)/C=C/CN(C)C)CC2=O)c1 [XS175-46, (E)-4-(4-(dimethylamino)but-2-enoyl)-1-(4-methylthiophen-2-yl)piperazin-2-one]	
25%	Cc1ccc(N2CCN(C(=O)CCl)CC2=O)s1 [XS165-119, 4-(2-chloroacetyl)-1-(5-methylthiophen-2-yl)piperazin-2-one]	
15%	Cc1ccc(C(=O)NCC2CCN2C(=O)/C=C/CN(C)C)s1 (centres unmarked) [XS190-127, (E)-N-((1-(4-(dimethylamino)but-2-enoyl)azetidin-2-yl)methyl)-5-methylthiophene-2-carboxamide]	
85%	Cc1ccc(N2CC3CCC(C2=O)N3C(=O)/C=C/CN(C)C)[nH]1 (centres unmarked) [XS197-14, (E)-8-(4-(dimethylamino)but-2-enoyl)-3-(5-methyl-1H-pyrrol-2-yl)-3,8-diazabicyclo[3.2.1]octan-2-one]	
40%	Cc1ccc(NC(=O)C2CN(C(=O)/C=C/CN(C)C)C2)s1 [XS175-71, (E)-1-(4-(dimethylamino)but-2-enoyl)-N-(5-methylthiophen-2-yl)azetidine-3-carboxamide]	
100%	CN(C)C/C=C/C(=O)N1CCN(c2cc3c(s2)CCCC3)C(=O)C1 [XS175-186, (E)-4-(4-(dimethylamino)but-2-enoyl)-1-(4,5,6,7-tetrahydrobenzo[b]thiophen-2-yl)piperazin-2-one]	

Continued, compound first:

Structure (SMILES)	% of OTUB1 modified (Human OTUB1 wild-type)	further results
CN(C)C/C=C/C(=O)N1CCN(c2ccc(CCNC(=O)CCCCCCCCCC(=O)NCCn3ccc(-c4cc(Cl)c(Cl)c5[nH]c6c(c45)CN(C(=O)CO)CC6)n3)s2)C(=O)C1 [mS8588, (E)-N1-(2-(3-(6,7-dichloro-2-(2-hydroxyacetyl)-2,3,4,5-tetrahydro-1H-pyrido[4,3-b]indol-9-yl)-1H-pyrazol-1-yl)ethyl)-N11-(2-(5-(4-(4-(dimethylamino)but-2-enoyl)-2-oxopiperazin-1-yl)thiophen-2-yl)ethyl)undecanediamide]		co-elution of cGAS with OTUB1 (cGAS and OTUB1): cGAS co-elutes with OTUB1
Cc1ccc(S(=O)(=O)Nc2cc(C(F)(F)F)ccc2C(=O)Nc2nc(-c3ccccc3)cs2)cc1 [ML364]		inhibition of the enzymatic activity of OTUB1 (OTUB1 [2]): inhibit the enzymatic activity of OTUB1
Cc1ccc(C(=O)N2CC(NC(=O)/C=C/CN(C)C)C2)s1 [XS224-143, (E)-4-(dimethylamino)-N-(1-(5-methylthiophene-2-carbonyl)azetidin-3-yl)but-2-enamide]	7%	
CCC(=O)N1CC2CC(C1)N2C(=O)/C=C/CN(C)C [XS209-28, (E)-4-(dimethylamino)-1-(3-propionyl-3,6-diazabicyclo[3.1.1]heptan-6-yl)but-2-en-1-one]	25%	
CN(C)C/C=C/C(=O)N1CC(C(=O)Nc2cc3ccccc3s2)C1 [XS185-90, (E)-N-(benzo[b]thiophen-2-yl)-1-(4-(dimethylamino)but-2-enoyl)azetidine-3-carboxamide]	60%	
CN(C)C/C=C/C(=O)N1CC(C(=O)NC2CCCC2)C1 [XS185-131, (E)-N-cyclopentyl-1-(4-(dimethylamino)but-2-enoyl)azetidine-3-carboxamide]	18%	
Cc1cnc(C(=O)N2CC3CC(C2)N3C(=O)/C=C/CN(C)C)o1 [XS209-92, (E)-4-(dimethylamino)-1-(3-(5-methyloxazole-2-carbonyl)-3,6-diazabicyclo[3.1.1]heptan-6-yl)but-2-en-1-one]	15%	
Cc1ccc(NC(=O)C2(O)CN(C(=O)C#CCN(C)C)C2)s1 [XS209-99, 1-(4-(dimethylamino)but-2-ynoyl)-3-hydroxy-N-(5-methylthiophen-2-yl)azetidine-3-carboxamide]	98%	
CN(C)C/C=C/C(=O)N1C2CC1CN(C(=O)C1CN(C)C1)C2 [XS197-85, (E)-4-(dimethylamino)-1-(3-(1-methylazetidine-3-carbonyl)-3,6-diazabicyclo[3.1.1]heptan-6-yl)but-2-en-1-one]	45%	
CN(C)C/C=C/C(=O)N1CC(O)(C(=O)Nc2cc3c(s2)CCCC3)C1 [XS209-176, (E)-1-(4-(dimethylamino)but-2-enoyl)-3-hydroxy-N-(4,5,6,7-tetrahydrobenzo[b]thiophen-2-yl)azetidine-3-carboxamide]	55%	
Cc1ccc(C(=O)NC2CC(NC(=O)C#CCN(C)C)C2)s1 (centres unmarked) [XS224-148, N-(3-(4-(dimethylamino)but-2-ynamido)cyclobutyl)-5-methylthiophene-2-carboxamide]	90%	
Cc1ccc(NC(=O)C2CC3(C2)CN(C(=O)CCl)C3)s1 [XS185-5, 2-(2-chloroacetyl)-N-(5-methylthiophen-2-yl)-2-azaspiro[3.3]heptane-6-carboxamide]	100%	
CN(C)CC#CC(=O)N1CC(NC(=O)c2cc3c(s2)CCCC3)C1 [XS224-158, N-(1-(4-(dimethylamino)but-2-ynoyl)azetidin-3-yl)-4,5,6,7-tetrahydrobenzo[b]thiophene-2-carboxamide]	92%	
Cc1ccc(C(=O)Nc2ccc(NC(=O)/C=C/CN(C)C)cc2)s1 [XS209-165, (E)-N-(4-(4-(dimethylamino)but-2-enamido)phenyl)-5-methylthiophene-2-carboxamide]	20%	
CN(C)C/C=C/C(=O)N1CCN(c2ccc(CCC(=O)NCCCCCCCCCNC(=O)Cn3ccc(-c4cc(Cl)c(Cl)c5[nH]c6c(c45)CN(C(=O)CO)CC6)n3)s2)C(=O)C1 [MS7829]		co-elution of cGAS with OTUB1 (cGAS and OTUB1): cGAS co-elutes with OTUB1
C=CC(=O)N1CCN(c2cnc(C)n2C)C(=O)C1 [XS165-30, 4-acryloyl-1-(1,2-dimethyl-1H-imidazol-5-yl)piperazin-2-one]	<5%	
CN(C)C/C=C/C(=O)N1C2CC1CN(C(=O)c1cc3c(s1)CCCC3)C2 [XS190-48, (E)-4-(dimethylamino)-1-(3-(4,5,6,7-tetrahydrobenzo[b]thiophene-2-carbonyl)-3,6-diazabicyclo[3.1.1]heptan-6-yl)but-2-en-1-one]	90%	
CN(C)C/C=C/C(=O)N1C2CCC1C(=O)N(c1csc3ccccc13)C2 (centres unmarked) [XS190-44, (E)-3-(benzo[b]thiophen-3-yl)-8-(4-(dimethylamino)but-2-enoyl)-3,8-diazabicyclo[3.2.1]octan-2-one]	97%	
CC(=O)N1CC2CC(C1)N2C(=O)C#CCN(C)C [XS209-101, 1-(3-acetyl-3,6-diazabicyclo[3.1.1]heptan-6-yl)-4-(dimethylamino)but-2-yn-1-one]	100%	
Cc1ccc(NC(=O)C2(O)CN(C(=O)C#CC(C)(C)N(C)C)C2)s1 [XS209-100, 1-(4-(dimethylamino)-4-methylpent-2-ynoyl)-3-hydroxy-N-(5-methylthiophen-2-yl)azetidine-3-carboxamide]	25%	
Cc1ccc(NC(=O)C2CCN(C(=O)CCl)CC2)s1 [XS185-4, 1-(2-chloroacetyl)-N-(5-methylthiophen-2-yl)piperidine-4-carboxamide]	100%	
